This passage reports IC50 results from ChEMBL document CHEMBL1667726, “Macrophyllionium and macrophyllines A and B, oxindole alkaloids from Uncaria macrophylla” (J Nat Prod, 2011).

Experiment [1] deals with Aorta. Kind of experiment: Vasodilatory activity in Sprague-Dawley rat thoracic aorta smooth muscle assessed as inhibition of phenylephrine-induced vasoconstriction. Type of experiment: functional, tissue-based.
Another experiment concerns HL-60. The experiment can be described thus: Cytotoxicity against human HL60 cells after 48 hrs by MTT assay. The experiment is classed as functional, cell-based. The note with it: HL-60, 48 h. A general note: Tetrazolium dyes change colour on reduction, which living cells bring about.
The subject of experiment [2] is Aorta. Kind of experiment: Vasodilatory activity in Sprague-Dawley rat thoracic aorta smooth muscle assessed as inhibition of KCL-induced vasoconstriction. Type of experiment: functional, tissue-based.
For a further experiment, the system named is SW480. Kind of experiment: Cytotoxicity against human SW480 cells after 48 hrs by MTT assay. Type of experiment: functional, cell-based. The conditions noted are these: SW480, 48 h.

Values after ≈ are worked out from the molar mass of the structure shown. Where only a bound is given, the exact number is not on record here.

What is called IC50 is the midpoint of a concentration-inhibition curve. Take `CC[C@H]1C[N@@+]2(C)CC[C@]3(C([O-])=Nc4ccccc43)[C@H]2C[C@@H]1/C(=C/OC)C(=O)OC` [MACROPHYLLIONIUM]: the IC50 in the experiment with Aorta [1] is above 30 µg/mL; with HL-60, above 40 µM; in the experiment on Aorta [2] it was above 30 µg/mL; in the experiment on SW480, above 40 µM.

With `CC[C@@H]1CN2CC[C@@]3(C(=O)Nc4ccccc43)[C@@H]2C[C@@H]1/C(=C\OC)C(=O)OC` [CORYNOXINE], the half-maximal inhibitory concentration (IC50) in the experiment with Aorta [1] is above 30 µg/mL; in the experiment with HL-60, above 40 µM; in the experiment on Aorta [2] it was above 30 µg/mL; with SW480, above 40 µM.

Turning to `CC[C@@H]1CN2CCc3c([nH]c4ccccc34)[C@@H]2C[C@@H]1/C(=C/OC)C(=O)OC` [CORYNANTHEIDINE], the IC50 with Aorta [1] is above 30 µg/mL; with HL-60 it was 14 µM; with Aorta [2] it was above 30 µg/mL; with SW480 it was 23.3 µM.

Consider `CC[C@@H]1[C@@H](/C(=C/OC)C(=O)OC)C[C@@H]2N(CC[C@]23C(=O)Nc2ccccc23)[C@H]1CC(C)=O` [MACROPHYLLINE A], for which the IC50 in the experiment on Aorta [1] is 15.9 µg/mL (≈ 36 µM); in the experiment with HL-60 it was above 40 µM; in the experiment on Aorta [2], above 30 µg/mL; with SW480, above 40 µM.

For `CC[C@H]1CN2CCc3c([nH]c4ccccc34)[C@@H]2C[C@@H]1/C(=C/OC)C(=O)OC` [DIHYDROCORYNANTHEINE], the IC50 in the experiment on Aorta [1] was 21.8 µg/mL (≈ 59.2 µM); in the experiment with HL-60, above 40 µM; with Aorta [2], 6.73 µg/mL (≈ 18.3 µM); in the experiment with SW480, above 40 µM.

`COc1ccc(CCN(C)CCCC(C#N)(c2ccc(OC)c(OC)c2)C(C)C)cc1OC` (stereo not drawn) [VERAPAMIL]: the results for the IC50 with Aorta [1] and with Aorta [2] were 0.32 µg/mL (≈ 0.704 µM) and 1.41 µg/mL (≈ 3.1 µM), respectively.

Turning to `CC[C@@H]1CN2CC[C@]3(C(=O)Nc4ccccc43)[C@@H]2C[C@@H]1/C(=C\OC)C(=O)OC` [CORYNOXINE B], the IC50 with Aorta [1] is above 30 µg/mL; in the experiment on HL-60 it was above 40 µM; with Aorta [2] it was above 30 µg/mL; in the experiment on SW480, above 40 µM.

On to `CC[C@H]1CN2CC[C@]3(C(=O)Nc4ccccc43)[C@@H]2C[C@@H]1/C(=C\OC)C(=O)OC` [RHYNCHOPHYLLINE], for which the IC50 in the experiment on Aorta [1] is above 30 µg/mL; in the experiment with HL-60, above 40 µM; in the experiment on Aorta [2], above 30 µg/mL; in the experiment with SW480, above 40 µM.

On to `CC[C@H]1CN2CC[C@@]3(C(=O)Nc4ccccc43)[C@@H]2C[C@@H]1/C(=C\OC)C(=O)OC` [ISORHYNCHOPHYLLINE], for which the IC50 is 18.4 µg/mL (≈ 47.9 µM) in the experiment with Aorta [1], above 40 µM in the experiment on HL-60, above 30 µg/mL with Aorta [2] and above 40 µM with SW480.

`CC[C@@H]1[C@@H](/C(=C/OC)C(=O)OC)C[C@@H]2N(CC[C@@]23C(=O)Nc2ccccc23)[C@H]1CC(C)=O` [MACROPHYLLINE B]: the IC50 with Aorta [1] was above 30 µg/mL; with HL-60, above 40 µM; with Aorta [2], above 30 µg/mL; in the experiment on SW480 it was above 40 µM.
